# According to PubChem BioAssay AID2060617 (Molecular Pharmacology Branch, DTP, NCI, 2025):
# Tested on: 485368-065-R4-J2-PDC spheroids with HUVEC/MSC, viability
# Experiment: Anticancer human tumor 485368-065-R4-J2-PDC patient-derived pancreatic carcinoma cell line growth inhibition [CLK]
# Conditions: for IC50: curve of first compound; for viability, T/C: stronger effect = lower value
# Procedure, shortened: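 Multi-cell-type spheroids combined patient-derived tumor cells with HUVEC endothelial cells and human mesenchymal stem cells. Paired agents were dosed in half-log steps down from about clinical Cmax, or from 10 microM where Cmax was unknown.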
# [1] = second compound 0.0316 µM, first compound 0.0316 µM
# [2] = second compound 0.0316 µM, first compound 0.1 µM
# [3] = second compound 0.0316 µM, first compound 0.316 µM
# [4] = second compound 0.0316 µM, first compound 1 µM
# [5] = second compound 0.1 µM, first compound 0.0316 µM
# [6] = second compound 0.1 µM, first compound 0.1 µM
# [7] = second compound 0.1 µM, first compound 0.316 µM
# [8] = second compound 0.1 µM, first compound 1 µM
# [9] = second compound 0.316 µM, first compound 0.0316 µM
# [10] = second compound 0.316 µM, first compound 0.1 µM
# [11] = second compound 0.316 µM, first compound 0.316 µM
# [12] = second compound 0.316 µM, first compound 1 µM
# [13] = second compound 1 µM, first compound 0.0316 µM
# [14] = second compound 1 µM, first compound 0.1 µM
# [15] = second compound 1 µM, first compound 0.316 µM
# [16] = second compound 1 µM, first compound 1 µM
# [17] = second compound 3.16 µM, first compound 0.0316 µM
# [18] = second compound 3.16 µM, first compound 0.1 µM
# [19] = second compound 3.16 µM, first compound 0.316 µM
# [20] = second compound 3.16 µM, first compound 1 µM
# [21] = second compound 10 µM, first compound 0.0316 µM
# [22] = second compound 10 µM, first compound 0.1 µM
# [23] = second compound 10 µM, first compound 0.316 µM
# [24] = second compound 10 µM, first compound 1 µM
# [25] = second compound 0.0316 µM, first compound 0.00316 µM
# [26] = second compound 0.0316 µM, first compound 0.01 µM
# [27] = second compound 0.1 µM, first compound 0.00316 µM
# [28] = second compound 0.1 µM, first compound 0.01 µM
# [29] = second compound 0.316 µM, first compound 0.00316 µM
# [30] = second compound 0.316 µM, first compound 0.01 µM
# [31] = second compound 1 µM, first compound 0.00316 µM
# [32] = second compound 1 µM, first compound 0.01 µM
# [33] = second compound 3.16 µM, first compound 0.00316 µM
# [34] = second compound 3.16 µM, first compound 0.01 µM
# [35] = second compound 10 µM, first compound 0.00316 µM
# [36] = second compound 10 µM, first compound 0.01 µM
# 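Also: spheroids exposed to compounds for seven days.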
# 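For viability, T/C in this document: 100% = DMSO vehicle control wells.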
structure (smiles),measurement,setting,value
CC(Nc1ccc2c(c1)OCCn1cc(N3C(=O)OCC3C(F)F)nc1-2)C(N)=O (stereo unspecified) + CNC(=O)c1ccc(Nc2nc(OC3CCCC3)c3c(-c4ccc5nc(C)oc5c4)c[nH]c3n2)c(OC)c1,IC50,second compound 0.0316 µM,> 10000 nM
same,IC50,second compound 0.1 µM,> 10000 nM
same,IC50,second compound 0.316 µM,> 10000 nM
same,IC50,second compound 1 µM,2510 nM
same,IC50,second compound 3.16 µM,368 nM
same,IC50,second compound 10 µM,400 nM
same,"viability, T/C",[1],93.5%
same,"viability, T/C",[2],119%
same,"viability, T/C",[3],105%
same,"viability, T/C",[4],97.2%
same,"viability, T/C","second compound 0.0316 µM, first compound 3.16 µM",90.4%
same,"viability, T/C","second compound 0.0316 µM, first compound 10 µM",79.3%
same,"viability, T/C",[5],92.3%
same,"viability, T/C",[6],116%
same,"viability, T/C",[7],102%
same,"viability, T/C",[8],89.8%
same,"viability, T/C","second compound 0.1 µM, first compound 3.16 µM",75.2%
same,"viability, T/C","second compound 0.1 µM, first compound 10 µM",67.5%
same,"viability, T/C",[9],76.8%
same,"viability, T/C",[10],82.1%
same,"viability, T/C",[11],71.1%
same,"viability, T/C",[12],63.8%
same,"viability, T/C","second compound 0.316 µM, first compound 3.16 µM",63.3%
same,"viability, T/C","second compound 0.316 µM, first compound 10 µM",54.1%
same,"viability, T/C",[13],81.8%
same,"viability, T/C",[14],64.8%
same,"viability, T/C",[15],63.2%
same,"viability, T/C",[16],57.8%
same,"viability, T/C","second compound 1 µM, first compound 3.16 µM",47.5%
same,"viability, T/C","second compound 1 µM, first compound 10 µM",43.7%
same,"viability, T/C",[17],68.2%
same,"viability, T/C",[18],59%
same,"viability, T/C",[19],50%
same,"viability, T/C",[20],45.8%
same,"viability, T/C","second compound 3.16 µM, first compound 3.16 µM",38.7%
same,"viability, T/C","second compound 3.16 µM, first compound 10 µM",36.6%
same,"viability, T/C",[21],61%
same,"viability, T/C",[22],56.6%
same,"viability, T/C",[23],50.1%
same,"viability, T/C",[24],45.5%
same,"viability, T/C","second compound 10 µM, first compound 3.16 µM",41.5%
same,"viability, T/C","second compound 10 µM, first compound 10 µM",33.8%
CCN1CCN(Cc2ccc(Nc3ncc(F)c(-c4cc(F)c5nc(C)n(C(C)C)c5c4)n3)nc2)CC1 + CNC(=O)c1ccc(Nc2nc(OC3CCCC3)c3c(-c4ccc5nc(C)oc5c4)c[nH]c3n2)c(OC)c1,IC50,second compound 0.0316 µM,> 1000 nM
same,IC50,second compound 0.1 µM,> 1000 nM
same,IC50,second compound 0.316 µM,> 1000 nM
same,IC50,second compound 1 µM,> 1000 nM
same,IC50,second compound 3.16 µM,> 1000 nM
same,IC50,second compound 10 µM,> 1000 nM
same,"viability, T/C",[25],95.9%
same,"viability, T/C",[26],106%
same,"viability, T/C",[1],103%
same,"viability, T/C",[2],135%
same,"viability, T/C",[3],134%
same,"viability, T/C",[4],117%
same,"viability, T/C",[27],89.4%
same,"viability, T/C",[28],92%
same,"viability, T/C",[5],93%
same,"viability, T/C",[6],95.1%
same,"viability, T/C",[7],109%
same,"viability, T/C",[8],100%
same,"viability, T/C",[29],81.5%
same,"viability, T/C",[30],81%
same,"viability, T/C",[9],75.2%
same,"viability, T/C",[10],66.5%
same,"viability, T/C",[11],84.5%
same,"viability, T/C",[12],72.9%
same,"viability, T/C",[31],71.8%
same,"viability, T/C",[32],77.3%
same,"viability, T/C",[13],82.8%
same,"viability, T/C",[14],75.7%
same,"viability, T/C",[15],75.4%
same,"viability, T/C",[16],73.2%
same,"viability, T/C",[33],72.7%
same,"viability, T/C",[34],71.7%
same,"viability, T/C",[17],67.1%
same,"viability, T/C",[18],63.1%
same,"viability, T/C",[19],60.2%
same,"viability, T/C",[20],63.2%
same,"viability, T/C",[35],72.1%
same,"viability, T/C",[36],65.1%
same,"viability, T/C",[21],66%
same,"viability, T/C",[22],60.7%
same,"viability, T/C",[23],60.4%
same,"viability, T/C",[24],56.3%
COc1c(OCCCN2CCOCC2)ccc2c3n(c(=NC(=O)c4cnc(N)nc4)nc12)CCN3 + CNC(=O)c1ccc(Nc2nc(OC3CCCC3)c3c(-c4ccc5nc(C)oc5c4)c[nH]c3n2)c(OC)c1,IC50,second compound 0.0316 µM,220 nM
same,IC50,second compound 0.1 µM,243 nM
same,IC50,second compound 0.316 µM,136 nM
same,IC50,second compound 1 µM,54.9 nM
same,IC50,second compound 3.16 µM,42.6 nM
same,IC50,second compound 10 µM,35.3 nM
same,"viability, T/C",[25],81.5%
same,"viability, T/C",[26],124%
same,"viability, T/C",[1],111%
same,"viability, T/C",[2],66.1%
same,"viability, T/C",[3],44.5%
same,"viability, T/C",[4],40.5%
same,"viability, T/C",[27],103%
same,"viability, T/C",[28],121%
same,"viability, T/C",[5],110%
same,"viability, T/C",[6],68.4%
same,"viability, T/C",[7],48%
same,"viability, T/C",[8],39.9%
same,"viability, T/C",[29],72.4%
same,"viability, T/C",[30],80.8%
same,"viability, T/C",[9],72.6%
same,"viability, T/C",[10],54.9%
same,"viability, T/C",[11],36.2%
same,"viability, T/C",[12],37.3%
same,"viability, T/C",[31],76.7%
same,"viability, T/C",[32],65.4%
same,"viability, T/C",[13],59.6%
same,"viability, T/C",[14],42.1%
same,"viability, T/C",[15],31.1%
same,"viability, T/C",[16],30.5%
same,"viability, T/C",[33],71.2%
same,"viability, T/C",[34],61.2%
same,"viability, T/C",[17],56.2%
same,"viability, T/C",[18],38.5%
same,"viability, T/C",[19],28.4%
same,"viability, T/C",[20],28.5%
same,"viability, T/C",[35],66.4%
same,"viability, T/C",[36],65.3%
same,"viability, T/C",[21],49.7%
same,"viability, T/C",[22],38.8%
same,"viability, T/C",[23],27.1%
same,"viability, T/C",[24],30.1%
